Assay results published in US7928238B2, “1,2,3,4-tetrahydro-quinoline derivatives as CETP inhibitors” (Janssen Pharmaceutica NV, priority 2006, dated 2011).
Values joined by “and” are separate entries in the source; they are usually repeats but may differ in a detail not shown here. Identical values can stand only once.

Biological target: T1, CETP (Homo sapiens, UniProt P11597)
T1 construct: from tissue; host or cells: human plasma from normal volunteers
T1 sequence (P11597 18-493): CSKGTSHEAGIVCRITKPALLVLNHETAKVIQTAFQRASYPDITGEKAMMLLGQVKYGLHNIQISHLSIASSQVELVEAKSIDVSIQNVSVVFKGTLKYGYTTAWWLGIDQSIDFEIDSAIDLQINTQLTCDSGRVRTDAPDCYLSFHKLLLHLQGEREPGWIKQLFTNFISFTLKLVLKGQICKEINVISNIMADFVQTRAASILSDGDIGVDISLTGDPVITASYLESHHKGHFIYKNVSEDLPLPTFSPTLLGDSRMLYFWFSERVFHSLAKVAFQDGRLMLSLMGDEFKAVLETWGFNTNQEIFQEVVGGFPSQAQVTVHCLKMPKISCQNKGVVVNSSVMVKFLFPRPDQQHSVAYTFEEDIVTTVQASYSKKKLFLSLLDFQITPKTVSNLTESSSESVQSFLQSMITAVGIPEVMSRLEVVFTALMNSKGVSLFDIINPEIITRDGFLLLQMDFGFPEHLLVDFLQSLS
Assay: CETP in vitro assay (Amersham kit TRKQ7005; modified protocol in human plasma, [3H]CE-HDL transfer)
Type: biochemical
Settings: for % Inhibition @ 1 μM / inhibition at 1 µM: 1 μM compound; for IC50: from plots of % control versus compound concentration; for inhibition at 1 µM: read-out: % Inhibition @ 1 μM
Description: The CETP inhibitory activity of the compounds was determined using a commercially available kit from Amersham Biosciences (Catalog #TRKQ7005).
Briefly, 80 μl of human plasma (obtained from normal volunteers), approximately 25 μg/ml (20 μl) of [^3H]CE-HDL (Amersham Biosciences from kit TRKQ7005) and 1 μl of compound dissolved in DMSO was incubated for at least 4 hrs at 37° C. and non-specific transfer was determined by incubating a corresponding plate at 4° C. (blank). After the incubation period, 10 μl of a solution of 1% Dextralip 50/0.5M MgCl2, pH 7.4 was added, vortexed and incubated at room temperature for 10 min. The plate was then centrifuged for 30 min at 10° C. at 300 rpm in a Sorvall RT6000B centrifuge. Fifty microliters of the supernatant was transferred to a Picoplate (Packard) containing 100 μl of Microscint 40 (Perkin Elmer) and mixed for 30 min using a plate mixer. The radioactivity was counted using a TopCount (Perkin Elmer) and the % control was determined in the samples using the following formula: % transfer relative to vehicle controls (% control)=[cpm blank−cpm test]/cpm blank/cpm control]×100. IC50s were calculated from plots of the % control versus compound concentration.

Row | % Inhibition @ 1 μM | IC50 | inhibition at 1 µM [%] | SMILES
1 | 85% | 500 nM |  | OC(CN1c2cccc(-c3ccc(C(F)(F)F)cc3)c2CCC1c1cccc(OC(F)(F)C(F)F)c1)C(F)(F)F (stereo not shown) [Compound 3, 1,1,1-Trifluoro-3-[2-[3-(1,1,2,2-tetrafluoro-ethoxy)-phenyl]-5-(4-trifluoromethyl-phenyl)-3,4-dihydro-2H-quinolin-1-yl]-propan-2-ol]
2 | 6% |  |  | OC(CN1c2cccc(-c3cccc(OC(F)(F)F)c3)c2CCC1c1ccccc1)C(F)(F)F (stereo not shown) [Compound 20, 1,1,1-Trifluoro-3-[2-phenyl-5-(3-trifluoromethoxy-phenyl)-3,4-dihydro-2H-quinolin-1-yl]-propan-2-ol]
3 | 96% | 260 nM and 381 nM |  | Cc1cc(-c2cccc3c2CCC(c2cccc(OC(F)(F)C(F)F)c2)N3CC(O)C(F)(F)F)ccc1Cl (stereo not shown) [Compound 5, 3-{5-(4-Chloro-3-methyl-phenyl)-2-[3-(1,1,2,2-tetrafluoro-ethoxy)-phenyl]-3,4-dihydro-2H-quinolin-1-yl}-1,1,1-trifluoro-propan-2-ol]
4 | 62% | 600 nM |  | CCc1cc(Oc2cccc3c2CCC(c2cccc(OC(F)(F)C(F)F)c2)N3CC(O)C(F)(F)F)ccc1Cl (stereo not shown) [Compound 84, 3-{5-(4-Chloro-3-ethyl-phenoxy)-2-[3-(1,1,2,2-tetrafluro-ethoxy)-phenyl]-3,4-dihydro-2H-quinolin-1-yl}-1,1,1-trifluoro-propan-2-ol]
5 |  |  | 30 | COc1cccc(-c2cccc3c2CC[C@H](c2cccc(OC(F)(F)F)c2)N3C[C@H](O)C(F)(F)F)c1 [Compound 59]
6 | 86% | 450 nM and 150 nM |  | OC(CN1c2cccc(-c3cccc(OC(F)(F)F)c3)c2CCC1c1cccc(OC(F)(F)C(F)F)c1)C(F)(F)F (single isomer, unassigned) [Compound 2, 1,1,1-Trifluoro-3-[2-[3-(1,1,2,2-tetrafluoro-ethoxy)-phenyl]-5-(3-trifluoromethoxy-phenyl)-3,4-dihydro-2H-quinolin-1-yl]-propan-2-ol]
7 | 82% and 85% | 177 nM and 293 nM |  | N#Cc1cccc(-c2cccc3c2CCC(c2cccc(OC(F)(F)C(F)F)c2)N3CC(O)C(F)(F)F)c1 (stereo not shown) [Compound 9, 3-[2-[3-(1,1,2,2-Tetrafluoro-ethoxy)-phenyl]-1-(3,3,3-trifluoro-2-hydroxy-propyl)-1,2,3,4-tetrahydro-quinolin-5-yl]-benzonitrile]
8 | 29% and 36% |  |  | OC(CN1c2cccc(-c3ccc(OC(F)(F)F)cc3)c2CCC1c1cccc(OC(F)(F)C(F)F)c1)C(F)(F)F (stereo not shown) [Compound 8, 1,1,1-Trifluoro-3-[2-[3-(1,1,2,2-tetrafluoro-ethoxy)-phenyl]-5-(4-trifluoromethoxy-phenyl)-3,4-dihydro-2H-quinolin-1-yl]-propan-2-ol]
9 | 60% and 66% | 380 nM and 255 nM |  | OC(CN1c2cccc(-c3cccs3)c2CCC1c1cccc(OC(F)(F)C(F)F)c1)C(F)(F)F (stereo not shown) [Compound 74, 1,1,1-Trifluoro-3-{2-[3-(1,1,2,2-tetrafluoro-ethoxy)-phenyl]-5-thiophen-2-yl-3,4-dihydro-2H-quinolin-1-yl}-propan-2-ol]
10 |  |  | 13 | COC[C@@H](O)CN1c2cccc(-c3cccc(OC(F)(F)F)c3)c2CC[C@@H]1c1cccc(OC(F)(F)F)c1 [Compound 51]
11 | 41% and 64% |  |  | OC(CN1c2cccc(-c3cccc(F)c3)c2CCC1c1cccc(OC(F)(F)C(F)F)c1)C(F)(F)F (stereo not shown) [Compound 12, 1,1,1-Trifluoro-3-{5-(3-fluoro-phenyl)-2-[3-(1,1,2,2-tetrafluoro-ethoxy)-phenyl]-3,4-dihydro-2H-quinolin-1-yl}-propan-2-ol]
12 | 40% and 35% | 2900 nM |  | OC(CN1c2cccc(-c3cccc(OC(F)(F)F)c3)c2CCC1c1cccc(C(F)(F)F)c1)C(F)(F)F (stereo not shown) [Compound 18, 1,1,1-Trifluoro-3-[5-(3-trifluoromethoxy-phenyl)-2-(3-trifluoromethyl-phenyl)-3,4-dihydro-2H-quinolin-1-yl]-propan-2-ol]
13 | 5% |  |  | OC(CN1c2cccc(-c3cccc(OC(F)(F)F)c3)c2CCC1c1ccc(OC(F)(F)C(F)F)cc1)C(F)(F)F (stereo not shown) [Compound 21, 1,1,1-Trifluoro-3-[2-[4-(1,1,2,2-tetrafluoro-ethoxy)-phenyl]-5-(3-trifluoromethoxy-phenyl)-3,4-dihydro-2H-quinolin-1-yl]-propan-2-ol]
14 |  | > 3000 nM | 62 | O[C@H](CN1c2cccc(-c3cccc(OC(F)(F)F)c3)c2CC[C@@H]1c1cccc(OC(F)(F)C(F)F)c1)C(F)(F)F [Compound 79, (2R, αR)-3,4-Dihydro-2-[3-(1,1,2,2-tetrafluoroethoxy)phenyl]-5-[3-(trifluoromethoxy)phenyl]-α-(trifluoromethyl)-1(2H)-quinolineethanol]
15 |  |  | 0 | C[C@H](O)CN1c2cccc(-c3cccc(OC(F)(F)F)c3)c2CC[C@@H]1c1cccc(OC(F)(F)C(F)F)c1 [Compound 61]
16 | 97% and 106% | 231 nM |  | Oc1cccc(-c2cccc3c2CCC(c2cccc(OC(F)(F)C(F)F)c2)N3CC(O)C(F)(F)F)c1 (stereo not shown) [Compound 42, 3-[2-[3-(1,1,2,2-Tetrafluoro-ethoxy)-phenyl]-1-(3,3,3-trifluoro-2-hydroxy-propyl)-1,2,3,4-tetrahydro-quinolin-5-yl]-phenol]
17 | 43% and 45% |  |  | CCC1CCc2c(-c3cccc(OC(F)(F)F)c3)cccc2N1CC(O)C(F)(F)F (stereo not shown) [Compound 35, 3-[2-Ethyl-5-(3-trifluoromethoxy-phenyl)-3,4-dihydro-2H-quinolin-1-yl]-1,1,1-trifluoro-propan-2-ol]
18 | 59% and 74% | 582 nM |  | COc1cccc(C2CCc3c(-c4cccc(OC(F)(F)F)c4)cccc3N2CC(O)C(F)(F)F)c1 (stereo not shown) [Compound 25, 1,1,1-Trifluoro-3-[2-(3-methoxy-phenyl)-5-(3-trifluoromethoxy-phenyl)-3,4-dihydro-2H-quinolin-1-yl]-propan-2-ol]
19 | 98% | 140 nM and 160 nM | 100 | COc1cccc(-c2cccc3c2CC[C@H](c2cccc(OC(F)(F)C(F)F)c2)N3C[C@H](O)C(F)(F)F)c1 [Compound 83]
20 | 12% |  |  | OC(CN1c2cccc(-c3cccc(OC(F)(F)F)c3)c2CCC1c1cccs1)C(F)(F)F (stereo not shown) [Compound 34, 1,1,1-Trifluoro-3-[2-thiophen-2-yl-5-(3-trifluoromethoxy-phenyl)-3,4-dihydro-2H-quinolin-1-yl]-propan-2-ol]
21 | 86% | 400 nM |  | OC(CN1c2cccc(Oc3cccc(Cl)c3Cl)c2CCC1c1cccc(OC(F)(F)C(F)F)c1)C(F)(F)F (stereo not shown) [Compound 87, 3-{5-(2,3-Dichloro-phenoxy)-2-[3-(1,1,2,2-tetrafluoro-ethoxy)-phenyl]-3,4-dihydro-2H-quinolin-1-yl}-1,1,1-trifluoro-propan-2-ol]
22 | 34% |  |  | OC(CN1c2cccc(-c3cccc(OC(F)(F)F)c3)c2CCC1c1cccc(OC(F)(F)F)c1)C(F)(F)F (stereo not shown) [Compound 32, 3-[2,5-Bis-(3-trifluoromethoxy-phenyl)-3,4-dihydro-2H-quinolin-1-yl]-1,1,1-trifluoro-propan-2-ol]
23 | 43% and 55% | 84 nM and 202 nM | 54 | OC(CN1c2cccc(-c3cccc(OC(F)(F)F)c3)c2CCC1c1cccc(C(F)(F)F)c1)C(F)(F)F (stereo not shown) [Compound 17, 1,1,1-Trifluoro-3-[5-(3-trifluoromethoxy-phenyl)-2-(3-trifluoromethyl-phenyl)-3,4-dihydro-2H-quinolin-1-yl]-propan-2-ol]
24 | 61, 61% |  |  | OC(CN1c2cccc(-c3ccc(OC(F)(F)F)cc3)c2CCC1c1cccc(OC(F)(F)C(F)F)c1)C(F)(F)F (stereo not shown) [Compound 7, 1,1,1-Trifluoro-3-[2-[3-(1,1,2,2-tetrafluoro-ethoxy)-phenyl]-5-(4-trifluoromethoxy-phenyl)-3,4-dihydro-2H-quinolin-1-yl]-propan-2-ol]
25 | 48% and 38% | 410 nM |  | N#Cc1cccc(C2CCc3c(-c4cccc(OC(F)(F)F)c4)cccc3N2CC(O)C(F)(F)F)c1 (stereo not shown) [Compound 27, 3-[1-(3,3,3-Trifluoro-2-hydroxy-propyl)-5-(3-trifluoromethoxy-phenyl)-1,2,3,4-tetrahydro-quinolin-2-yl]-benzonitrile]
26 | 77% and 72% and 67% and 66% and 62% | 150 nM and 100 nM |  | OC(CN1c2cccc(-c3cccc(OC(F)(F)F)c3)c2CCC1c1cccc(OC(F)(F)F)c1)C(F)(F)F (stereo not shown) [Compound 31, 3-[2,5-Bis-(3-trifluoromethoxy-phenyl)-3,4-dihydro-2H-quinolin-1-yl]-1,1,1-trifluoro-propan-2-ol]
